Test results taken from patent publication US20260083701A1, “COMPOSITIONS, FORMULATIONS, AND METHODS FOR TREATMENT OF INFLAMMATORY CONDITIONS” (Oddity Labs, LLC, priority 2023, published 2026).

Columns and labels:
[1] = tested on: IL-4; experiment: Functional Th2-blocking activity: IL-4 expression in primary human Th2 cells (intracellular flow cytometry); type: cell-based; details: primary human CD4+ Th2 cells; for % Normalized Reduction of Cytokine Expression From Baseline in CD4+ T Cells IL-4: normalized against vehicle control (water), 3 days co-culture, PMA/ionomycin 6 hours; for Expression of Cytokine following Stimulation (% X Positive among CD4+ T cells) IL-4: 3 days co-culture with compound, PMA/ionomycin stimulation 6 hours
Description: (§1) To produce T helper 2 (Th2) cells, peripheral blood mononuclear cells (PBMCs) were harvested from healthy donor leukopaks using Ficoll gradients. Naive CD4+ T cells were further isolated, then activated using TransAct or Dynabeads (depending on the donor). CD4+ T cells were activated for two days in the presence of low dose IL-2 (30 IU/mL) in X-VIVO-15 media containing 5% human AB serum (activation cycle). On the second day, the media was exchanged and supplemented with interleukin 4 (IL-4) (20 ng/mL), anti-IFN-gamma antibody (1 μg/mL), and interleukin 2 (IL-2) (rest cycle). The cells were cultured for an additional five days then evaluated for Prostaglandin D2 receptor 2 (DP2 or CRTH2) expression and IL-4 and interleukin 13 (IL-13) expression following phorbol myristate acetate (PMA)/ionomycin stimulation. If the expression of CRTH2 was >50%, the cells were frozen and used in Th2 IL-4/IL-13 bioactivity assays. If the expression of CRTH2 <50%, then the cells were restimulated using TransAct (or Dynabeads) and maintained on similar cycles of activation (2 days) and rest (5 days), until the expression of CRTH2 exceeded 50%. Typically, no more than 4 cycles are needed before the Th2 cells may be harvested and frozen.
(§2) For testing the ability of a compound or salt of the present disclosure to reduce the expression of IL-4 and IL-13 was tested in primary human Th2 cells, the abovementioned cells were thawed, then cultured for one day in IL-2 containing media. The Th2 cells were treated with compounds added at varying concentrations for three days, after which, the cells were washed, and stimulated with PMA/ionomycin for 6 hrs prior to readabout via intracellular flow cytometry.
(§3) The ability of a compound or salt of the present disclosure to reduce the expression of IL-4 and IL-13 was tested in primary human Th2 cells. Naive, primary human CD4+ T cells were isolated from healthy donors and differentiated into Th2 cells using a combination of IL-4 cytokine and anti-IFN-gamma antibody, based on a modified protocol from Scott et al (Activation of Th2 cells downregulates CRTh2 through an NFAT1 mediated mechanism. PLoS One. 2018 Jul. 3; 13(7):e0199156). Th2 cells were CRTH2+ and expressed IL-4 and IL-13 following PMA/ionomycin stimulation. Prior to PMA/ionomycin stimulation, Th2 cells were co-cultured with a compound or salt of the present disclosure for 3 days and then stimulated for 6 hours. Intracellular flow cytometry was performed to investigate the expression of IL-4 and IL-13 among stimulated CD4+ Th2 cells. The compound or salt was evaluated across a 2-log concentration range. Th2 cells were cultured in X-VIVO-15 media with human AB serum and supplemented with low dose IL-2 (30 IU/mL). The antibody panel that was used is listed below. All antibodies were obtained from Biolegend.
(§4) Description of Calculation for: (1) Expression of Cytokine following Stimulation (% X Positive among CD4+ T cells), and (2) % Normalized Reduction of Cytokine Expression From Baseline in CD4+ T Cells
(§5) The expression of IL-4 and IL-13 was measured based on positive gated fractions among CD4+ Th2 cells. The number is expressed as a positive percentage, determined based on the fluorescence-minus-one (FMO) control. The max percent is 100%. The normalized reduction value uses the vehicle control (water) to normalize against using the following percent change formula. (Cmpd: compound)

[2] = tested on: IL-13; experiment: Functional Th2-blocking activity: IL-13 expression in primary human Th2 cells (intracellular flow cytometry); type: cell-based; details: for Expression of Cytokine following Stimulation (% X Positive among CD4+ T cells) IL-13: 3 days co-culture with compound, PMA/ionomycin stimulation 6 hours; for % Normalized Reduction of Cytokine Expression From Baseline in CD4+ T Cells IL-13: normalized against vehicle control (water), 3 days co-culture, PMA/ionomycin 6 hours
Description: as §1, §2, §3, §4, §5

SMILES | % Normalized Reduction of Cytokine Expression From Baseline in CD4+ T Cells IL-4 [1] | Expression of Cytokine following Stimulation (% X Positive among CD4+ T cells) IL-4 [1] | Expression of Cytokine following Stimulation (% X Positive among CD4+ T cells) IL-13 [2] | % Normalized Reduction of Cytokine Expression From Baseline in CD4+ T Cells IL-13 [2]
O=C(C1CCc2cn[nH]c2C1)N1C[C@H]2CCC[C@@]2(c2nc(-c3ccccc3)no2)C1 (stereo in doubt) [IV-1, 6-[(3aS,6aS)-3a-(3-phenyl-1,2,4-oxadiazol-5-yl)-octahydrocyclopenta[c]pyrrole-2-carbonyl]-4,5,6,7-tetrahydro-1H-indazole] | C (C represents 20% to less than 25%) | B (B represents 30% to less than 35%) | C (C represents 14% to less than 18%) | C (C represents 40% to less than 50%)
O=C1CCC(N2Cc3c(OCC(=O)N4CCCC(c5ccccn5)C4)cccc3C2=O)C(=O)N1 (stereo not shown) [Compound V-2, 3-(1-oxo-4-{2-oxo-2-[3-(pyridin-2-yl)piperidin-1-yl]ethoxy}-2,3-dihydro-1H-isoindol-2-yl)piperidine-2,6-dione] | D (D represents 25% or greater) | A (A represents 0% to less than 30%) | B (B represents 10% to less than 14%) | D (D represents 50% or greater)
O=C(Nc1cccc(-c2ccc3nnc(-c4ccncc4)n3n2)c1)c1ccc(Cl)nc1 [III-2, 6-chloro-N-{3-[3-(pyridin-4-yl)-[1,2,4]triazolo[4,3-b]pyridazin-6-yl]phenyl}pyridine-3-carboxamide] | C (C represents 20% to less than 25%) | B (B represents 30% to less than 35%) | C (C represents 14% to less than 18%) | C (C represents 40% to less than 50%)
CCNC(=O)COc1cccc(NC(=O)c2sccc2-n2c(C)ccc2C)c1 [III-3, 3-(2,5-dimethyl-1H-pyrrol-1-yl)-N-{3-[(ethylcarbamoyl)methoxy]phenyl} thiophene-2-carboxamide] | B (B represents 15% to less than 20%) | B (B represents 30% to less than 35%) | B (B represents 10% to less than 14%) | D (D represents 50% or greater)
Cc1cc(NC(=O)CC23CC4CC(CC(C4)C2)C3)cc(-c2nc3ncccc3o2)c1O [III-4, 2-(1-adamantyl)-N-(4-hydroxy-3-methy1-5-[1,3]oxazolo[4,5-b]pyridin-2-ylphenyl)acetamide] | C (C represents 20% to less than 25%) | B (B represents 30% to less than 35%) | C (C represents 14% to less than 18%) | B (B represents 30% to less than 40%)
O=C(Cc1c[nH]c2ccccc12)Nc1cccc(-c2ccc3nnc(-c4cccnc4)n3n2)c1 [III-5, 2-(1H-indol-3-yl)-N-{3-[3-(pyridin-3-yl)-[1,2,4]triazolo[4,3-b]pyridazin-6-yl]phenyl}acetamide] | A (A represents 0% to less than 15%) | C (C represents 35% to less than 40%) | B (B represents 10% to less than 14%) | D (D represents 50% or greater)
O=C(Cc1ncc(C(F)(F)F)cc1Cl)Nc1ccc(N2CCOCC2)cc1 [III-6, 2-[3-chloro-5-(trifluoromethyl)pyridin-2-yl]-N-[4-(morpholin-4-yl)phenyl]acetamide] | B (B represents 15% to less than 20%) | B (B represents 30% to less than 35%) | C (C represents 14% to less than 18%) | B (B represents 30% to less than 40%)
O=C(Nc1cccc(NC(=O)c2ccc3[nH]c4c(c3c2)CCCC4)c1)c1ccccc1 [III-7, N-(3-benzamidophenyl)-2,3,4,9-tetrahydro-1H-carbazole-6-carboxamide] | D (D represents 25% or greater) | A (A represents 0% to less than 30%) | B (B represents 10% to less than 14%) | D (D represents 50% or greater)
Cc1nnc(-c2cccc(-c3noc(-c4c[nH]c(=O)c5ccccc45)n3)c2)[nH]1 [IV-2, 4-{3-[3-(5-methyl-4H-1,2,4-triazol-3-yl)phenyl]-1,2,4-oxadiazol-5-yl}-1,2-dihydroisoquinolin-1-one] | D (D represents 25% or greater) | B (B represents 30% to less than 35%) | B (B represents 10% to less than 14%) | D (D represents 50% or greater)
O=c1c2ccccc2c(-c2nc(-c3ccccc3Cl)no2)nn1-c1ccccc1 [IV-3, 4-[3-(2-chlorophenyl)-1,2,4-oxadiazol-5-yl]-2-phenyl-1,2-dihydrophthalazin-1-one] | C (C represents 20% to less than 25%) | B (B represents 30% to less than 35%) | C (C represents 14% to less than 18%) | B (B represents 30% to less than 40%)
O=C(NC1CCN(C(=O)c2cn(-c3ccc(F)cc3)nn2)CC1)c1cc2ccccc2[nH]1 [VI-1, N-{1-[1-(4-fluorophenyl)-1H-1,2,3-triazole-4-carbonyl]piperidin-4-yl}-1H-indole-2-carboxamide] | D (D represents 25% or greater) | B (B represents 30% to less than 35%) | C (C represents 14% to less than 18%) | B (B represents 30% to less than 40%)
O=C(NCCn1ccc2ccccc21)NC1CC(=O)N(c2cccc(F)c2)C1 (stereo not shown) [VI-2, 3-[1-(3-fluorophenyl)-5-oxopyrrolidin-3-y1]-1-[2-(1H-indol-1-yl)ethyl]urea] | D (D represents 25% or greater) | B (B represents 30% to less than 35%) | D (D represents 18% or greater) | A (A represents 0% to less than 30%)
COC(=O)c1sccc1-n1c(C)ccc1C [VI-3, methyl 3-(2,5-dimethyl-1H-pyrrol-1-yl)thiophene-2-carboxylate] | B (B represents 15% to less than 20%) | B (B represents 30% to less than 35%) | C (C represents 14% to less than 18%) | C (C represents 40% to less than 50%)
